Results on 14 compounds are retold here after ChEMBL document CHEMBL2074574, “The interaction and transport of beta-lactam antibiotics with the cloned rat renal organic anion transporter 1” (J Pharmacol Exp Ther, 1999).

Broadly, the Ki is the dissociation constant of the complex between target and ligand, obtained from inhibition or displacement. A higher Ki goes with a looser hold on the target.

Data set [1] concerns the target T1, Solute carrier family 22 member 6 (Rattus norvegicus, UniProt O35956).
T1 sequence (O35956 whole entry): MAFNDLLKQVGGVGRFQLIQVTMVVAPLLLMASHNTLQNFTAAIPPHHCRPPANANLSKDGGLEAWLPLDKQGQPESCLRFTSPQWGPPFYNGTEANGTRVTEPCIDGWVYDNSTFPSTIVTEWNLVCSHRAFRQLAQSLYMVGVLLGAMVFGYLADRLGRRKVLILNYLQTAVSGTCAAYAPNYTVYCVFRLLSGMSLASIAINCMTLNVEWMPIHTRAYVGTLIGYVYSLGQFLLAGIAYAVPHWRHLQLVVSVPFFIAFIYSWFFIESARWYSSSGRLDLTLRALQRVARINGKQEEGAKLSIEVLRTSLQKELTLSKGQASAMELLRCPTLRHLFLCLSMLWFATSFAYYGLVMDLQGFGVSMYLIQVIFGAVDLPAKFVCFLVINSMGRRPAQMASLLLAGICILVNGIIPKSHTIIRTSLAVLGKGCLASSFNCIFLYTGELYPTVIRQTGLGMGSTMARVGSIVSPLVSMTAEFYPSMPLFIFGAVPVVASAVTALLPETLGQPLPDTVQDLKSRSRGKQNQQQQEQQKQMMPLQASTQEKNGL
In words: TP_TRANSPORTER: inhibition of PAH uptake (PAH: 2 uM, Piperacillin: 2000 uM) in Xenopus laevis oocytes. The settings on record: oocyte. Type of data set: functional, cell-based.

For data set [2], the target named is T1, Solute carrier family 22 member 6. The data set is described as follows: TP_TRANSPORTER: inhibition of PAH uptake (PAH: 2 uM, OFLX: 2000 uM) in Xenopus laevis oocytes. The format is functional, cell-based. The settings on record: oocyte.
The target is the same in data set [3]. In words: TP_TRANSPORTER: inhibition of PAH uptake (PAH: 2 uM, Streptomycin: 2000 uM) in Xenopus laevis oocytes. The format is functional, cell-based. To be noted: oocyte.
Data set [4] shares this target. In words: TP_TRANSPORTER: inhibition of PAH uptake (PAH: 2 uM, Nafcillin: 2000 uM) in Xenopus laevis oocytes. The format is functional, cell-based. To be noted: oocyte.
Data set [5] shares this target. In words: TP_TRANSPORTER: inhibition of PAH uptake in Xenopus laevis oocytes. The format is functional, cell-based, Oocyte.
The target is the same in data set [6]. In words: TP_TRANSPORTER: inhibition of PAH uptake (PAH: 2 uM, Gentamicin: 2000 uM) in Xenopus laevis oocytes. The format is functional, cell-based. The settings on record: oocyte.
The target is the same in data set [7]. In words: TP_TRANSPORTER: inhibition of PAH uptake (PAH: 2 uM, Cloxacillin: 2000 uM) in Xenopus laevis oocytes. To be noted: oocyte. The format is functional, cell-based.
The target is the same in data set [8]. The data set is described as follows: TP_TRANSPORTER: inhibition of PAH uptake (PAH: 2 uM, Vancomycin: 2000 uM) in Xenopus laevis oocytes. Type of data set: functional, cell-based. The settings on record: oocyte.
Data set [9] has the same target. The data set is described as follows: TP_TRANSPORTER: inhibition of PAH uptake (PAH: 2 uM, Cefsulodin: 2000 uM) in Xenopus laevis oocytes. To be noted: oocyte. The format is functional, cell-based.
Data set [10] has the same target. In words: TP_TRANSPORTER: inhibition of PAH uptake (PAH: 2 uM, Ceftazidime: 2000 uM) in Xenopus laevis oocytes. The settings on record: oocyte. Type of data set: functional, cell-based.
For data set [11] the target is unchanged. In words: TP_TRANSPORTER: inhibition of PAH uptake (PAH: 2 uM, Chloramphenicol: 2000 uM) in Xenopus laevis oocytes. The settings on record: oocyte. Type of data set: functional, cell-based.
The target is the same in data set [12]. The data set is described as follows: TP_TRANSPORTER: inhibition of PAH uptake (PAH: 2 uM, Amoxicillin: 2000 uM) in Xenopus laevis oocytes. The format is functional, cell-based. To be noted: oocyte.
The target is the same in data set [13]. In words: TP_TRANSPORTER: inhibition of PAH uptake (PAH: 2 uM, Norfloxacin: 2000 uM) in Xenopus laevis oocytes. Type of data set: functional, cell-based. The settings on record: oocyte.
For data set [14] the target is unchanged. The data set is described as follows: TP_TRANSPORTER: inhibition of PAH uptake (PAH: 2 uM, Cinoxacin: 2000 uM) in Xenopus laevis oocytes. The format is functional, cell-based. The settings on record: oocyte.

In the case of `CCN1CCN(C(=O)N[C@@H](C(=O)N[C@@H]2C(=O)N3[C@@H]2SC(C)(C)[C@@H]3C(=O)O)c2ccccc2)C(=O)C1=O` [PIPERACILLIN], the Activity entry in data set [1] was “inhibitor [(at a rough estimate) 5 % of control]”.

As for `CC1COc2c(N3CCN(C)CC3)c(F)cc3c(=O)c(C(=O)O)cn1c23` (centres undefined) [OFLOXACIN], the Activity entry in data set [2] is “is not an inhibitor [-]”.

With `[H]/N=C(/N)N[C@H]1[C@H](O)[C@@H](O)[C@H](O[C@@H]2O[C@@H](C)[C@](O)(C=O)[C@H]2O[C@@H]2O[C@@H](CO)[C@H](O)[C@@H](O)[C@@H]2NC)[C@@H](N/C(N)=N\[H])[C@@H]1O` [STREPTOMYCIN], the Activity entry in data set [3] is “is not an inhibitor [-]”.

For the compound `CCOc1ccc2ccccc2c1C(=O)N[C@@H]1C(=O)N2[C@@H]1SC(C)(C)[C@@H]2C(=O)O` [NAFCILLIN], the Activity result in data set [4] was “inhibitor [(at a rough estimate) <5 % of control]”.

In [5], `CC1=C(C(=O)O)N2C(=O)[C@@H](NC(=O)[C@H](N)c3ccccc3)[C@H]2SC1` [CEPHALEXIN ANHYDROUS] gave a Ki of 2310 µM.

In the case of GENTAMICIN, the Activity entry in [6] was “is not an inhibitor [-]”.

Turning to `Cc1onc(-c2ccccc2Cl)c1C(=O)N[C@@H]1C(=O)N2[C@@H]1SC(C)(C)[C@@H]2C(=O)O` [CLOXACILLIN], the Activity result in [7] was “inhibitor [(at a rough estimate) 5 % of control]”.

For the compound `CN[C@H](CC(C)C)C(=O)N[C@H]1C(=O)N[C@@H](CC(N)=O)C(=O)N[C@H]2C(=O)N[C@H]3C(=O)N[C@H](C(=O)N[C@H](C(=O)O)c4cc(O)cc(O)c4-c4cc3ccc4O)[C@H](O)c3ccc(c(Cl)c3)Oc3cc2cc(c3O[C@@H]2O[C@H](CO)[C@@H](O)[C@H](O)[C@H]2O[C@H]2C[C@](C)(N)[C@H](O)[C@H](C)O2)Oc2ccc(cc2Cl)[C@H]1O` [VANCOMYCIN], the Activity result in data set [8] is “is not an inhibitor [-]”.

Regarding `NC(=O)c1cc[n+](CC2=C(C(=O)O)N3C(=O)[C@@H](NC(=O)[C@@H](c4ccccc4)S(=O)(=O)[O-])[C@H]3SC2)cc1` [CEFSULODIN], the Activity entry in data set [9] was “inhibitor [(at a rough estimate) 10 % of control]”.

Regarding `CC(C)(O/N=C(\C(=O)N[C@@H]1C(=O)N2C(C(=O)[O-])=C(C[n+]3ccccc3)CS[C@H]12)c1csc(N)n1)C(=O)O` [CEFTAZIDIME], the Activity result in [10] is “inhibitor [(at a rough estimate) 45 % of control]”.

Take `O=C(N[C@H](CO)[C@H](O)c1ccc([N+](=O)[O-])cc1)C(Cl)Cl` [CHLORAMPHENICOL]: the Activity result in [11] is “inhibitor [(at a rough estimate) 75% of control]”.

`CC1(C)S[C@@H]2[C@H](NC(=O)[C@H](N)c3ccc(O)cc3)C(=O)N2[C@H]1C(=O)O` [AMOXICILLIN]: in data set [12], the Activity result is “inhibitor [(at a rough estimate) 20 % of control]”.

As for `CCn1cc(C(=O)O)c(=O)c2cc(F)c(N3CCNCC3)cc21` [NORFLOXACIN], in data set [13], the Activity entry is “is not an inhibitor [-]”.

In the case of `CCn1nc(C(=O)O)c(=O)c2cc3c(cc21)OCO3` [CINOXACIN], in [14], the Activity result is “inhibitor [(at a rough estimate) 5 % of control]”.
